Bounds are passed on as bounds.

This assay deals with human PD-L1 / Human PD-1 (Homo sapiens (Human), UniProt Q9NZQ7). The assay can be described thus: Enzyme-Linked Immunosorbent Assay (ELISA), PD-1/PD-L1 binding. The note with it: plates coated with human PD-L1; biotinylated human PD-1; absorbance at 450 nm. The protocol: 96 Well plates were coated with 1 μg/mL of human PD-L1 (obtained from R&D) in PBS overnight at 4° C. The wells were then blocked with 2% BSA in PBS (W/V) with 0.05% TWEEN-20 for 1 hour at 37° C. The plates were washed 3 times with PBS/0.05% TWEEN-20 and the compounds were serial diluted (1:5) in dilution medium and added to the ELISA plates. Human PD-1 and biotin 0.3 μg/mL (ACRO Biosystems) were added and incubated for 1 hour at 37° C. then washed 3 times with PBS/0.05% TWEEN-20. A second block was performed with 2% BSA in PBS (W/V)/0.05% TWEEN-20 for 10 min at 37° C. and the plates were washed 3 times with PBS/0.05% TWEEN-20. Streptavidin-HRP was added for 1 hour at 37° C. then the plates were washed 3 times with PBS/0.05% TWEEN-20. TMB substrate was added and reacted for 20 min at 37° C. A stop solution (2 N aqueous H2SO4) was added. The absorbance was read at 450 nm using a micro-plate spectrophotometer. The results are shown in Table 1: IC50 values are provided as follows: from 100 up to 10,000 nM (+); less than 100 nM (++).
Sequence of human PD-L1 / Human PD-1 (Q9NZQ7 19-239): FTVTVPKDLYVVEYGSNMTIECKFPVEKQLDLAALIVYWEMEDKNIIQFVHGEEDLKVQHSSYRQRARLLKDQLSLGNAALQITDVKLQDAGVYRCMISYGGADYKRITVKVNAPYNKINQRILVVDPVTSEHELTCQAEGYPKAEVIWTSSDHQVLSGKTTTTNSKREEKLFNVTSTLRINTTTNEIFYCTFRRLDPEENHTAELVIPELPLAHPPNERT
For the compound `CCOc1cc(O[C@H]2CCc3c(-c4cccc5c4CC[C@@H]5Oc4cc(OCC)c(CN5CCC6(C5)NC(=O)NC6=O)cc4Cl)cccc32)c(Cl)cc1CN[C@@](C)(CO)C(=O)O` (stereo partly shown) [Compound 1.028], the IC50 is < 100 nM. As to `CCOc1cc(O[C@H]2CCc3c(-c4cccc5c4CC[C@@H]5Oc4cc(OCc5cncc(C#N)c5)c(CN[C@@](C)(CO)C(=O)O)cc4Cl)cccc32)c(Cl)cc1CN[C@@](C)(CO)C(=O)O` [Compound 1.040], the IC50 was < 100 nM. To `C[C@@](CO)(NCc1cc(Cl)c(O[C@H]2CCc3c(-c4cccc5c4CC[C@@H]5Oc4cc(OCc5cncc(C#N)c5)c(CN[C@@](C)(CO)C(=O)O)cc4Cl)cccc32)cc1OCc1cncc(C#N)c1)C(=O)O` [Compound 1.051] belongs < 100 nM; to `CN(Cc1cc(Cl)c(O[C@H]2CCc3c(-c4cccc5c4CC[C@@H]5Oc4cc(OCc5cncc(C#N)c5)c(CN(C)[C@@](C)(CO)C(=O)O)cc4Cl)cccc32)cc1OCc1cncc(C#N)c1)[C@@](C)(CO)C(=O)O` [Compound 1.033], < 100 nM.

In turn, `CCOc1cc(O[C@H]2CCc3c(-c4cccc5c4CC[C@@H]5Oc4cc(OCC)c(CN)cc4Cl)cccc32)c(Cl)cc1CN` [Compound 1.003] returned an IC50 of 100 to 10000 nM.

Regarding `CCOc1cc(O[C@H]2CCc3c(-c4cccc5c4CC[C@@H]5Oc4cc(OCC)c(CN(C)CCC(=O)O)cc4Cl)cccc32)c(Cl)cc1CN(C)CCC(=O)O` [Compound 1.049], the IC50 is < 100 nM.

Regarding `CCOc1cc(O[C@H]2CCc3c(-c4cccc(COc5cc(COC)c(CN[C@@](C)(CO)C(=O)O)cc5Cl)c4C)cccc32)c(Cl)cc1CN[C@@](C)(CO)C(=O)O` [Compound 1.036], the half-maximal inhibitory concentration (IC50) was < 100 nM.

As for `N#Cc1cncc(COc2cc(O[C@H]3CCc4c(-c5cccc6c5CC[C@@H]6Oc5cc(OCc6cncc(C#N)c6)c(CNCC(=O)O)cc5Cl)cccc43)c(Cl)cc2CNCC(=O)O)c1` [Compound 1.017], the IC50 is < 100 nM. As to `CCOc1cc(O[C@H]2CCc3c(-c4cccc5c4CC[C@@H]5Oc4cc(OCC)c(CN[C@@H](CO)C(=O)O)cc4Cl)cccc32)c(Cl)cc1CN[C@@H](CO)C(=O)O` [Compound 1.045], the IC50 was < 100 nM.

As for `CCOc1cc(O[C@H]2CCc3c(-c4cccc5c4CC[C@@H]5Oc4cc(OCC)c(CN[C@@](C)(CO)C(=O)O)cc4Cl)cccc32)c(Cl)cc1CN[C@@](C)(CO)C(=O)O` [Compound 1.044], the IC50 is < 100 nM.

For the compound `N#Cc1cncc(COc2cc(O[C@H]3CCc4c(-c5cccc6c5CC[C@@H]6Oc5cc(OCc6cncc(C#N)c6)c(CN[C@@H](CO)C(=O)O)cc5Cl)cccc43)c(Cl)cc2CN[C@@H](CO)C(=O)O)c1` [Compound 1.038], the half-maximal inhibitory concentration (IC50) is < 100 nM. On to `CCOc1cc(O[C@@H]2c3cccc(-c4cccc(COc5cc(COC)c(CN[C@@](C)(CO)C(=O)O)cc5Cl)c4C)c3C[C@@H]2F)c(Cl)cc1CN[C@@](C)(CO)C(=O)O` (mixture of isomers) [Compound 1.020], for which the IC50 is < 100 nM. As for `N#Cc1cncc(COc2cc(O[C@H]3CCc4c(-c5cccc6c5CC[C@@H]6Oc5cc(OCc6cncc(C#N)c6)c(CN[C@@H](CCO)C(=O)O)cc5Cl)cccc43)c(Cl)cc2CN[C@@H](CCO)C(=O)O)c1` [Compound 1.046], the IC50 is < 100 nM. Turning to `CCOc1cc(O[C@H]2CCc3c(-c4cccc5c4CC[C@@H]5Oc4cc(OCC)c(CN[C@H]5CCC(=O)NC5)cc4Cl)cccc32)c(Cl)cc1CN[C@H]1CCC(=O)NC1` [Compound 1.009], the IC50 is < 100 nM. For `CCOc1cc(O[C@H]2CCc3c(-c4cccc5c4CC[C@@H]5Oc4cc(OCC)c(CN[C@@H](CO)C(N)=O)cc4Cl)cccc32)c(Cl)cc1CN[C@@H](CO)C(N)=O` [Compound 1.014], the IC50 was < 100 nM. In the case of `CCOc1cc(O[C@H]2CCc3c(-c4cccc5c4CC[C@@H]5Oc4cc(OCC)c(CN[C@@](C)(CO)C(=O)OC)cc4Cl)cccc32)c(Cl)cc1CN[C@@](C)(CO)C(=O)OC` [Compound 1.022], the IC50 is 100 to 10000 nM. The same measure for `CCOc1cc(O[C@H]2CCc3c(-c4cccc5c4CC[C@@H]5Oc4cc(OCC)c(CN(C)CCCC(=O)OC)cc4Cl)cccc32)c(Cl)cc1CN(C)CCCC(=O)OC` [Compound 1.021]: 100 to 10000 nM. On to `CCOc1cc(O[C@H]2CCc3c(-c4cccc(COc5cc(COC)c(CN(C)CCCC(=O)O)cc5Cl)c4C)cccc32)c(Cl)cc1CN(C)CCCC(=O)O` [Compound 1.012], for which the IC50 was < 100 nM. The same measure for `CCOc1cc(O[C@H]2CCc3c(-c4cccc5c4CC[C@@H]5Oc4cc(OCC)c(CN[C@H](CO)C(=O)O)cc4Cl)cccc32)c(Cl)cc1CN[C@H](CO)C(=O)O` [Compound 1.018]: < 100 nM; for `CCOc1cc(O[C@H]2CCc3c(-c4cccc5c4CC[C@@H]5Oc4cc(OCC)c(CN(C)CCCC(=O)O)cc4Cl)cccc32)c(Cl)cc1CN(C)CCCC(=O)O` [Compound 1.025]: < 100 nM. Compound `CCOc1cc(NC2CCc3c(-c4cccc(COc5cc(OCC)c(CN(C)CCCC(=O)OC)cc5Cl)c4C)cccc32)c(Cl)cc1CN(C)CCCC(=O)OC` (stereo not shown) [Compound 1.016] registered a 50% inhibitory concentration (IC50) of 100 to 10000 nM. With `CCOc1cc(O[C@H]2CCc3c(-c4cccc5c4CC[C@@H]5Oc4cc(OCC)c(CN[C@H](C(=O)OC)[C@@H](C)O)cc4Cl)cccc32)c(Cl)cc1CN[C@H](C(=O)OC)[C@@H](C)O` [Compound 1.034], the half-maximal inhibitory concentration (IC50) is 100 to 10000 nM. Turning to `Cc1c(COc2ccc(CN[C@@](C)(CO)C(=O)O)cc2Cl)cccc1-c1cccc2c1CCC2Oc1ccc(CN[C@@](C)(CO)C(=O)O)cc1Cl` (stereo partly shown) [Compound 1.024], the IC50 is < 100 nM. On to `CCOc1cc(O[C@H]2CCc3c(-c4cccc5c4CC[C@@H]5Oc4cc(OCC)c(CN[C@@](C)(CO)C(=O)O)cc4Cl)cccc32)c(Cl)cc1CNC[C@@H]1CCC(=O)N1` [Compound 1.032], for which the concentration for half-maximal inhibition (IC50) is < 100 nM. `CCOc1cc(O[C@H]2CCc3c(-c4cccc5c4CC[C@@H]5Oc4cc(OCC)c(CN[C@H](C(=O)O)[C@@H](C)O)cc4Cl)cccc32)c(Cl)cc1CN[C@H](C(=O)O)[C@@H](C)O` [Compound 1.042]: the IC50 was < 100 nM. As for `CCOc1cc(OCc2cccc(-c3cccc4c3CCC4Oc3ccc(CN[C@@](C)(CO)C(=O)O)c(OCC)c3)c2C)ccc1CN[C@@](C)(CO)C(=O)O` (stereo partly shown) [Compound 1.023], the half-inhibitory concentration (IC50) is 100 to 10000 nM. The same measure for `CCOc1cc(O[C@H]2CCc3c(-c4cccc5c4CC[C@@H]5Oc4cc(OCC)c(CN5CCC5(C)C)cc4Cl)cccc32)c(Cl)cc1CN1CCC1(C)C` [Compound 1.048]: < 100 nM; for `CCOc1cc(OCc2cccc(-c3cccc4c3CC[C@@H]4Oc3cc(OCC)c(CNCCS(=O)(=O)O)cc3Cl)c2C)c(Cl)cc1CNCCS(=O)(=O)O` [Compound 1.004]: < 100 nM. Turning to `CCOc1cc(O[C@H]2CCc3c(-c4cccc5c4CC[C@@H]5Oc4cc(OCC)c(CN(C)[C@@](C)(CO)C(=O)O)cc4Cl)cccc32)c(Cl)cc1CN(C)[C@@](C)(CO)C(=O)O` [Compound 1.019], the IC50 is < 100 nM. The compound `CCOc1cc(O[C@H]2CCc3c(-c4cccc5c4CC[C@@H]5Oc4cc(OCC)c(CN(C)CCC(=O)OC)cc4Cl)cccc32)c(Cl)cc1CN(C)CCC(=O)OC` [Compound 1.043] had an IC50 of 100 to 10000 nM. The same measure for `CN(CCCC(=O)O)Cc1cc(Cl)c(O[C@H]2CCc3c(-c4cccc5c4CC[C@@H]5Oc4cc(OCc5cncc(C#N)c5)c(CN(C)CCCC(=O)O)cc4Cl)cccc32)cc1OCc1cncc(C#N)c1` [Compound 1.035]: < 100 nM; for `CCOc1cc(O[C@H]2CCc3c(-c4cccc(COc5cc(COC)c(CN6CCC(OC(=O)C(C)C)CC6)cc5Cl)c4C)cccc32)c(Cl)cc1CN1CCC(OC(=O)C(C)C)CC1` [Compound 1.005]: 100 to 10000 nM.

As to `CCOc1cc(O[C@H]2CCc3c(-c4cccc5c4CC[C@@H]5Oc4cc(OCC)c(CN(C)[C@@H](CO)C(=O)O)cc4Cl)cccc32)c(Cl)cc1CN(C)[C@@H](CO)C(=O)O` [Compound 1.002], the 50% inhibitory concentration (IC50) is < 100 nM. The same measure for `COc1cc(CN[C@@](C)(CO)C(=O)O)ccc1OCc1cccc(-c2cccc3c2CCC3Oc2ccc(CN[C@@](C)(CO)C(=O)O)cc2OC)c1C` (stereo partly shown) [Compound 1.011]: 100 to 10000 nM. As for `CC(C)OC(=O)[C@](C)(CO)NCc1cc(Cl)c(O[C@H]2CCc3c(-c4cccc5c4CC[C@@H]5Oc4cc(OCc5cncc(C#N)c5)c(CN[C@@](C)(CO)C(=O)OC(C)C)cc4Cl)cccc32)cc1OCc1cncc(C#N)c1` [Compound 1.041], the IC50 was 100 to 10000 nM.

Compound `CCOc1cc(O[C@H]2CCc3c(-c4cccc(COc5cc(COC)c(CN6CCC(OC(=O)[C@@H](N)C(C)C)CC6)cc5Cl)c4C)cccc32)c(Cl)cc1CN1CCC(OC(=O)[C@@H](N)C(C)C)CC1` [Compound 1.001] displayed a half-inhibitory concentration (IC50) of 100 to 10000 nM. In the case of `CCOc1cc(NC2CCc3c(-c4cccc(COc5cc(OCC)c(CN(C)CCCC(=O)O)cc5Cl)c4C)cccc32)c(Cl)cc1CN(C)CCCC(=O)O` (stereo not shown) [Compound 1.015], the concentration for half-maximal inhibition (IC50) was < 100 nM. In the case of `CCOc1cc(O[C@H]2CCc3c(-c4cccc5c4CC[C@H]5Oc4cc(OCC)c(CN[C@@](C)(CO)C(=O)O)cc4Cl)cccc32)c(Cl)cc1CN[C@@](C)(CO)C(=O)O` [Compound 1.031], the half-inhibitory concentration (IC50) is < 100 nM. On to `CCOc1cc(O[C@H]2CCc3c(-c4cccc5c4CC[C@@H]5Oc4cc(OCC)c(CN[C@@](C)(CO)C(=O)O)cc4Cl)cccc32)c(Cl)cc1CN[C@@H]1CCC[C@@H]1O` [Compound 1.013], for which the IC50 was < 100 nM. `CCOc1cc(O[C@H]2CCc3c(-c4cccc5c4CC[C@@H]5Oc4cc(OCc5cc(C#N)cc(C#N)c5)c(CN[C@@](C)(CO)C(=O)O)cc4Cl)cccc32)c(Cl)cc1CN[C@@](C)(CO)C(=O)O` [Compound 1.026]: the concentration for half-maximal inhibition (IC50) is < 100 nM.

Broadly, the IC50 is the midpoint of a concentration-inhibition curve. A higher IC50 goes with weaker potency in that assay.

(Values after patent US11872217B2, “Indanes as PD-L1 inhibitors” (CHEMOCENTRYX, INC., priority 2019, dated 2024).)
